Measured values from patent US8846711B2, “Heterocyclic acrylamides and their use as pharmaceuticals” (Fab Pharma S.A.S., priority 2009, dated 2014).
Values after ≈ are worked out from the molar mass of the structure shown.

Assays:
[1] = molecular target: recombinant S. aureus FabI enzyme (Staphylococcus aureus (strain MRSA252), UniProt Q6GI75); experiment: FabI inhibition, fluorescence based assay; assay type: biochemical; conditions: in vitro
Protocol: Compound inhibitory activity of FabI enzyme is measured in vitro by the […] determination using a fluorescence based assay.
The protein FabI from S. aureus is prepared and purified using standard methods for recombinant protein expression after cloning of the gene in a prokaryotic expression vector.
The biochemical activity of the FabI enzyme is assessed using the following method.
The assay buffer “AB” contained 50 mM ADA (N-(2-acetamido)iminodiacetic acid monosodium salt) pH 6.5, 1 mM dithiothreitol, 0.006% Triton-X100 and 50 mM NaCl.
The following components are added in a white polystyrene Costar plate (Ref 3912) up to a final volume of 55.5 μL: 1.5 μL DMSO or inhibitor dissolved in DMSO and 54 μL of a FabI/NADPH/NADP+ mixture in AB. After 60 min of pre-incubation at room temperature, the reaction is started by addition of 5 μL of trans-2-octenoyl N-acetylcysteamine thioester (t-o-NAC) to a final volume of 60.5 μL. This reaction mixture is then composed of 2 nM FabI, 40 μM NADPH (Sigma, N7505), 10 μM NADP+ (Sigma, N5755), 100 μM t-O-NAC and compound at defined concentration. Fluorescence intensity of NADPH (λex=360 nm, […]) is measured immediately after t-O-NAC addition (T0), and approximately 50 min later (T50) by a Fluostar Optima (BMG) so as to achieve ±30% of NADPH conversion. Enzyme activity is calculated by first subtracting TO signal to T50 and then subtracting background signal (FabI=0). Percentages of inhibition are calculated against untreated samples (Inhibitor=0) and IC50 are fitted to a classical Langmuir equilibrium model using XLFIT (IDBS).

C. albicans (ATCC 90028) = experiment: MIC determination using susceptibility method (broth microdilution); assay type: cell-based; conditions: Candida albicans, ATCC90028, read-out: MIC (μg/ml) C. albicans (ATCC 90028)
Protocol: (§1) Minimum inhibitory concentrations (MICs) were determined by broth microdilution according to CLSI guidelines (CLSI, M100-20^1, M7-A8^2, M27-A3^3). The compounds were tested in the range from […]. Colonies were taken directly from a second-pass culture plate and prepared to a suspension equivalent to the 0.5 McFarland standard using normal saline. […] The panels were incubated at 35° C. for 16 to 20 hours before reading the MIC endpoints. The compounds of Examples 12, 29, 59, 63 and 66-71 were dissolved in DMSO to make the initial solutions of 5120 μg/ml. These solutions were diluted 1:10 in sterile water to a stock solution of 512 μg/ml. The stock solutions were further diluted into the appropriate broth medium for the sequential dilutions used in the broth microdilution panels. S. pneumoniae was tested in Mueller Hinton (MH) broth with 3% lysed horse blood and C. albicans was tested in RPMI-1640 medium. All other organisms were tested in MH broth.

E. coli (ATCC 25922) = experiment: as above; assay type: cell-based; conditions: Escherichia coli, ATCC25922, read-out: MIC (μg/ml) E. coli (ATCC 25922)
Protocol: as §1

E. faecalis (ATCC 29212) = experiment: as above; assay type: cell-based; conditions: Enterococcus faecalis, ATCC29212, read-out: MIC (μg/ml) E. faecalis (ATCC 29212)
Protocol: as §1

MRSA (IHMA #510059) = experiment: as above; assay type: cell-based; conditions: Staphylococcus aureus, read-out: MIC (μg/ml) MRSA (IHMA #510059)
Protocol: as §1

MSSA (IHMA #555189) = experiment: as above; assay type: cell-based; conditions: Staphylococcus aureus, read-out: MIC (μg/ml) MSSA (IHMA #555189)
Protocol: as §1

S. aureus ATCC 29213 = experiment: as above; assay type: cell-based; conditions: Staphylococcus aureus, ATCC29213, read-out: MIC (μg/ml) S. aureus ATCC 29213
Protocol: as §1

[2] = test system: S. pneumoniae (ATCC 49619); experiment: as above; assay type: cell-based; conditions: Streptococcus pneumoniae, ATCC49619, read-out: MIC (μg/ml) S. pneumoniae (ATCC 49619)
Protocol: as §1

| Compound | IC50 [1] | also measured |
| --- | --- | --- |
| C=C(C)COC1CN(C(=O)/C=C/c2cnc3c(c2)CCC(=O)N3)C1 [Example 19, 6-[(1E)-3-{3-[(2-Methylprop-2-en-1-yl)oxy]azetidin-1-yl}-3-oxoprop-1-en-1-yl]-3,4-dihydro-1,8-naphthyridin-2(1H)-one] | 170 nM |  |
| Cc1nc(C2CN(C(=O)/C=C/c3cnc4c(c3)CCC(=O)N4)C2)no1 [Example 11, 6-{(1E)-3-[3-(5-Methyl-1,2,4-oxadiazol-3-yl)azetidin-1-yl]-3-oxoprop-1-en-1-yl}-3,4-dihydro-1,8-naphthyridin-2(1H)-one] | 150 nM |  |
| CCCCCS(=O)(=O)C1CN(C(=O)/C=C/c2cnc3c(c2)CCC(=O)N3)C1 [Example 22, 6-{(1E)-3-[3-(Pentylsulfonyl)azetidin-1-yl]-3-oxoprop-1-en-1-yl}-3,4-dihydro-1,8-naphthyridin-2(1H)-one] | 8600 nM |  |
| O=C1CCc2cc(/C=C/C(=O)N3CCC(CCO)CC3)cnc2N1 [Example 4, 6-{(1E)-3-[4-(2-Hydroxyethyl)piperidin-1-yl]-3-oxoprop-1-en-1-yl}-3,4-dihydro-1,8-naphthyridin-2(1H)-one] | 5300 nM |  |
| O=C1CCc2cc(/C=C/C(=O)N3CCC(O)(c4ccccc4)CC3)cnc2N1 [Example 14, 6-{(1E)-3-[4-Hydroxy-4-phenylpiperidin-1-yl]-3-oxoprop-1-en-1-yl}-3,4-dihydro-1,8-naphthyridin-2(1H)-one] | 340 nM |  |
| CC(Cc1ncccn1)=NOC1CN(C(=O)/C=C/c2cnc3c(c2)CCC(=O)N3)C1 (racemic) [Example 21, 6-{(1E)-3-[3-({[(1E)-1-Methyl-2-pyrimidin-2-ylethylidene]amino}oxy)azetidin-1-yl]-3-oxoprop-1-en-1-yl}-3,4-dihydro-1,8-naphthyridin-2(1H)-one] | 870 nM |  |
| O=C1CCc2cc(/C=C/C(=O)N3CC(Oc4ccccc4)C3)cnc2N1 [Example 6, 6-[(1E)-3-Oxo-3-(3-phenoxyazetidin-1-yl)prop-1-en-1-yl]-3,4-dihydro-1,8-naphthyridin-2(1H)-one] | 1000 nM |  |
| O=C1CCc2cc(/C=C/C(=O)N3CC(OCc4ccccc4)C3)cnc2N1 [Example 17, 6-{(1E)-3-[3-(Benzyloxy)azetidin-1-yl]-3-oxoprop-1-en-1-yl}-3,4-dihydro-1,8-naphthyridin-2(1H)-one] | 50 nM |  |
| O=C1CCc2cc(/C=C/C(=O)N3CCC(COc4ccc(F)cc4)CC3)cnc2N1 [Example 5, 6-[(1E)-3-{[4-(4-Fluorophenoxy)methyl]piperidin-1-yl}-3-oxoprop-1-en-1-yl]-3,4-dihydro-1,8-naphthyridin-2(1H)-one] | 250 nM |  |
| O=C1CCc2cc(/C=C/C(=O)N3CCCC3c3ccccc3)cnc2N1 (stereo not shown) [Example 7, 6-[(1E)-3-Oxo-3-(2-phenylpyrrolidin-1-yl)prop-1-en-1-yl]-3,4-dihydro-1,8-naphthyridin-2(1H)-one] | 7100 nM |  |
| CC(=O)Nc1ccc(/C=C/C(=O)N2CC(OCc3ccncc3)C2)cn1 [Example 24, N-(5-{(1E)-3-Oxo-3-[3-(pyridin-4-ylmethoxy)azetidin-1-yl]prop-1-en-1-yl}pyridin-2-yl)acetamide] | 260 nM |  |
| O=C1Nc2ncc(/C=C/C(=O)N3CCC(COc4ccc(F)cc4)CC3)cc2CC1CO (stereo not shown) [Example 28, 3-(Hydroxymethyl)-6-[(1E)-3-{4-[(4-fluorophenoxy)methyl]piperidin-1-yl}-3-oxoprop-1-en-1-yl]-3,4-dihydro-1,8-naphthyridin-2(1H)-one] | 81 nM |  |
| COC(=O)C1Cc2cc(/C=C/C(=O)N3CCC(COc4ccc(F)cc4)CC3)cnc2NC1=O (stereo not shown) [Example 25, Methyl 6-[(1E)-3-{4-[(4-fluorophenoxy)methyl]piperidin-1-yl}-3-oxoprop-1-en-1-yl]-2-oxo-1,2,3,4-tetrahydro-1,8-naphthyridine-3-carboxylate] | 60 nM |  |
| Nc1ccc(/C=C/C(=O)N2CC(OCc3ccncc3)C2)cn1 [Example 23, 5-{(1E)-3-Oxo-3-[3-(pyridin-4-ylmethoxy)azetidin-1-yl]prop-1-en-1-yl}pyridin-2-amine] | 1800 nM |  |
| NC(=O)C1Cc2cc(/C=C/C(=O)N3CCC(COc4ccc(F)cc4)CC3)cnc2NC1=O (stereo not shown) [Example 26, 6-[(1E)-3-{4-[(4-Fluorophenoxy)methyl]piperidin-1-yl}-3-oxoprop-1-en-1-yl]-2-oxo-1,2,3,4-tetrahydro-1,8-naphthyridine-3-carboxamide] | 78 nM |  |
| Cc1nc(C2CCCCN2C(=O)/C=C/c2cnc3c(c2)CCC(=O)N3)no1 (stereo not shown) [Example 13, 6-{(1E)-3-[2-(5-Methyl-1,2,4-oxadiazol-3-yl)piperidin-1-yl]-3-oxoprop-1-en-1-yl}-3,4-dihydro-1,8-naphthyridin-2(1H)-one] | 4100 nM |  |
| CN1CCC2(CC1)Cc1cc(/C=C/C(=O)N3CC(OCCc4cccs4)C3)cnc1NC2=O [Example 66, (E)-1′-Methyl-6-(3-oxo-3-(3-(2-(thiophen-2-yl)ethoxy)azetidin-1-yl)prop-1-en-1-yl)-1H-spiro[[1,8]naphthyridine-3,4′-piperidin]-2(4H)-one] |  | MIC (C. albicans (ATCC 90028)): 64 µg/mL (≈ 137 µM); MIC (E. coli (ATCC 25922)): 64 µg/mL (≈ 137 µM); MIC (E. faecalis (ATCC 29212)): 64 µg/mL (≈ 137 µM); MIC (MRSA (IHMA #510059)): 0.5 µg/mL (≈ 1.07 µM); MIC (MSSA (IHMA #555189)): 0.25 µg/mL (≈ 0.536 µM); MIC (S. aureus ATCC 29213): 0.25 µg/mL (≈ 0.536 µM); MIC [2]: 64 µg/mL (≈ 137 µM) |
| O=C1CCc2cc(/C=C/C(=O)N3CCC(Oc4cccnc4)C3)cnc2N1 (stereo not shown) [Example 16, 6-{(1E)-3-Oxo-3-[3-(pyridin-3-yloxy)pyrrolidin-1-yl]prop-1-en-1-yl}-3,4-dihydro-1,8-naphthyridin-2(1H)-one] | 930 nM |  |
| O=C1CCc2cc(/C=C/C(=O)N3CCCC[C@@H]3c3nc4ccccc4o3)cnc2N1 [Example 18, 6-{(1E)-3-[2-(1,3-Benzoxazol-2-yl)piperidin-1-yl]-3-oxoprop-1-en-1-yl}-3,4-dihydro-1,8-naphthyridin-2(1H)-one] | 1800 nM |  |
| O=C1CCc2cc(/C=C/C(=O)N3CCCCC3)cnc2N1 [Example 3, 6-[(1E)-3-Oxo-3-piperidin-1-ylprop-1-en-1-yl]-3,4-dihydro-1,8-naphthyridin-2(1H)-one] | 9900 nM |  |
| NC(=O)c1cc2cc(/C=C/C(=O)N3CCC(COc4ccc(F)cc4)CC3)cnc2[nH]c1=O [Example 27, 6-[(1E)-3-{4-[(4-Fluorophenoxy)methyl]piperidin-1-yl}-3-oxoprop-1-en-1-yl]-2-oxo-1,2-dihydro-1,8-naphthyridine-3-carboxamide] | 550 nM |  |
| O=C1CCc2cc(/C=C/C(=O)N3CCCC3)cnc2N1 [Example 2, 6-[(1E)-3-Oxo-3-pyrrolidin-1-ylprop-1-en-1-yl]-3,4-dihydro-1,8-naphthyridin-2(1H)-one] | 5500 nM |  |
| O=C1CCc2cc(/C=C/C(=O)N3CCC3)cnc2N1 [Example 1, 6-[(1E)-3-Azetidin-1-yl-3-oxoprop-1-en-1-yl]-3,4-dihydro-1,8-naphthyridin-2(1H)-one] | 11000 nM |  |
| O=C1CCc2cc(/C=C/C(=O)N3CC(OCc4nccs4)C3)cnc2N1 [Example 20, 6-{(1E)-3-Oxo-3-[3-(1,3-thiazol-2-ylmethoxy)azetidin-1-yl]prop-1-en-1-yl}-3,4-dihydro-1,8-naphthyridin-2(1H)-one] | 57 nM |  |
| O=C1CCc2cc(/C=C/C(=O)N3CCCC(COc4ccc(F)cc4)C3)cnc2N1 (stereo not shown) [Example 9, 6-[(1E)-3-{[3-(4-Fluorophenoxy)methyl]piperidin-1-yl}-3-oxoprop-1-en-1-yl]-3,4-dihydro-1,8-naphthyridin-2(1H)-one] | 1300 nM |  |
